Among the data in ChEMBL document CHEMBL1157539, “Thousands of chemical starting points for antimalarial lead identification” (Nature, 2010) are XC50 values, retold here.

Molecules are shown by their SMILES.

The experiment concerns Plasmodium falciparum. Description: GSK_TCMDC: Inhibition of Plasmodium falciparum 3D7 in whole erythrocytes, using parasite LDH activity as an index of growth. Type of experiment: functional, organism-based. The note with it: Plasmodium falciparum, 3D7.
`O=C(Nc1ccc([N+](=O)[O-])cc1)c1nn(-c2ccccc2)cc1/N=C/c1cccc(O)c1`: the XC50 turned out to be 890 nM.

In the case of `CN(C)Cc1ccc(-c2cc3c(Nc4ccc(OCc5cccc(F)c5)c(Cl)c4)ncnc3s2)[nH]1`, the XC50 is 824 nM. `O=C(Nc1cccc(CN2CCCN(Cc3ccc(O)cc3)CC2)c1)c1ccc(Cl)c(Cl)c1` had an XC50 of 259 nM. Take `COc1cc(-c2nc(-c3ccc(C(=O)c4ccc(F)cc4)cc3)c(-c3ccccc3)[nH]2)cc(OC)c1O`: the XC50 was 659 nM. For `O=C(c1ccc(F)c(F)c1)N1CCOC(CCN2CCC(c3ccccc3)CC2)(c2ccc(Cl)c(Cl)c2)C1` (stereo not given) the value was 1040 nM. The value for `COc1ccc(CNCc2cccc(-c3ccc(-c4nc5ccccc5[nH]4)s3)c2)cc1` was 816 nM; that for `CC(=O)N(C)c1cccc(C(=O)Nc2cccc(-c3cccc(-c4nc5cc(C(F)(F)F)ccc5[nH]4)c3)c2)c1` was 236 nM; that for `CN1CCC(Oc2cc(NC(=O)Nc3ccc(-c4ccncc4)c(Cl)c3)ccc2Cl)CC1` was 530 nM. For `c1ccc(Oc2ccc(Nc3ccnc(Nc4ccc5cn[nH]c5c4)n3)cc2)cc1` the value was 733 nM; for `COc1ccc(C(=O)Nc2ccc3nc(N4CCCCC4)cc(C)c3c2)cc1OC`, 994 nM; for `Cc1cc(N(C)C)nc(Nc2ccc(NC(=O)c3c(F)cccc3F)cc2)n1`, 1380 nM. Compound `CCOc1ccc(C(=O)Nc2cc(Cl)ccc2O)cc1Cl` yielded an XC50 of 705 nM. The value for `OC(Cn1ccnc1)(c1ccc(Cl)cc1Cl)C1CCCCC1` (stereo not given) was 984 nM; that for `Cc1cc(=NN=CC=Cc2ccccc2)c2ccccc2[nH]1` was 757 nM; that for `CC(Cc1ccc(C(=O)OC(c2ccccc2)c2ccccc2)cc1)NCC(O)c1ccccc1` (stereo not given) was 178 nM. In the case of `CC1(C)CCNc2cc(NC(=O)c3ccc(-c4ncccc4C(F)(F)F)cc3)ccc21`, the XC50 was found to be 903 nM.

`CCOC(=O)C(C#N)NC(=O)C=Cc1ccccc1` (stereo not given) displayed an XC50 of 804 nM. `CC(=O)Nc1ncc(C(=O)Nc2cccc(-c3ccc(-c4nc5cc(C(F)(F)F)ccc5[nH]4)cc3)c2)s1` displayed an XC50 of 590 nM.

`O=C(Nc1ccc(Cl)c(C(F)(F)F)c1)Nc1ccc(Cl)c(C(F)(F)F)c1` gave an XC50 of 768 nM.

In the case of `O=C(Nc1cccc(CN2CCCN(Cc3ccsc3)CC2)c1)c1ccc(Cl)c(Cl)c1`, the XC50 amounted to 885 nM. For `O=C(C=Cc1ccc(Cl)c(Cl)c1)NCCCCCN1CCC(CCNC(=O)C(c2ccccc2)c2ccccc2)CC1` the value was 1010 nM; for `CC(C)c1ccc2c(c1)c(SC(C)(C)C)c(CC(C)(C)C#N)n2Cc1ccc(Cl)cc1`, 225 nM; for `CC(NC(C)(C)C)C(O)c1ccc(Cl)c(C(F)(F)F)c1` (stereo not given), 742 nM. As for `N#Cc1cccc(CNC(=O)c2cccc(Nc3ccnc4ccc(F)cc34)c2)c1`, the XC50 was 987 nM. For `CCCCc1ccc(NC(=O)Nc2cccc(CCNCc3ccccc3)c2)cc1` the value was 881 nM; for `COc1ccc(Nc2ncc3c(-c4cccc(NC(=O)c5ccccc5)c4)c[nH]c3n2)cc1OC`, 461 nM; for `O=C1COc2ccccc2N1CCN1CCC(NCc2ccc(-c3cccs3)cc2)CC1`, 1430 nM.

Compound `COc1cc(NC(=O)c2cc([N+](=O)[O-])ccc2NC(=O)CNC2CCCCC2C)cc(OC)c1` (stereo not given) gave an XC50 of 1730 nM. For `COc1cc(Nc2ncc3c(C)nc(-c4cccc(Nc5ccc(CN6CCS(=O)(=O)CC6)cc5)c4)n3n2)cc(OC)c1OC` the value was 865 nM; for `O=S(=O)(/C=C/c1ccccc1)N(Cc1ccc(-c2ccc(CNCCOc3ccccc3)cc2)cc1)CC1CCCCN1` (stereo not given), 744 nM. As to `CS(=O)(=O)CCNC(=O)c1ccc(-c2cc3c(Nc4ccc5c(cnn5Cc5ccccc5)c4)ncnc3cn2)o1`, the XC50 was 995 nM.

`O=C(Nc1cccc(-c2csc(-c3nc4ccccc4[nH]3)c2)c1)c1cc(=O)c2ccccc2[nH]1` displayed an XC50 of 232 nM. For the compound `N#Cc1c(N2CCN(c3ccc(F)cc3)CC2)nc(N)c2c(N)nc3c(c12)CC(=O)N3C1CC1`, the XC50 came to 837 nM. Compound `COc1cc(Nc2ccnc3cc(-c4ccccn4)ccc23)cc(OC)c1OC` came in with an XC50 of 912 nM.

`COCCCNC(=O)c1ccc(O)c(-c2cc(Cl)cc(Cl)c2)c1` yielded an XC50 of 923 nM. For `O=C(c1cc(-c2cccs2)n[nH]1)N1CCN(S(=O)(=O)c2ccc(Br)cc2)CC1` the value was 357 nM. Consider `O=C(Nc1ccccc1Br)N[C@@H]1CCN(c2ccnc3ccccc23)C1`, for which the XC50 worked out at 935 nM. For `Nc1ccc(-c2ccc3ccnc(N)c3c2)cn1` the value was 353 nM. `COc1ccc(-c2cccc(NC(=O)c3cccc(Cl)c3)c2)cc1CN1CCCC1`: the XC50 was found to be 731 nM. `O=C(Nc1ccc2c(c1)OCO2)c1cc(-c2cccnc2)cnc1NCc1ccc2c(c1)OCO2` returned an XC50 of 1190 nM. For `O=C(Nc1cccc(-c2cccc(-c3nc4cc(C(F)(F)F)ccc4[nH]3)c2)c1)c1cccnc1` the value was 404 nM. The value for `Cc1cccc(-c2nn(-c3ccccc3)c3[nH]c(=O)c(CN4CCSCC4)cc23)c1` was 1010 nM. As for `CCc1cn2c3c(cc(C(=O)N[C@@H](Cc4ccccc4)[C@H](O)CNC4CCC4)cc13)N(C)S(=O)(=O)CC2`, the XC50 is 99 nM.

For the compound `CCCCCCC(N)c1ccc(OCCCOc2ccc(C(N)CCCCCC)cc2)cc1` (stereo not given), the XC50 is 1140 nM.

`COc1cc2c(cc1OC)C(C(=O)Nc1ccc(C(F)(F)F)cc1)C(c1cccs1)N(C)C2=O` (stereo not given): the XC50 was determined as 158 nM.

With `Cc1ccccc1C1CCN(C2CCC(NC(=O)c3ccc(-c4ccccc4F)o3)CC2)CC1` (stereo not given), the XC50 is 1050 nM. Compound `CCOc1ccc(C(=O)Nc2cc(Br)c3c(c2)CNCC3)cc1C#N` displayed an XC50 of 765 nM. The value for `COc1ccccc1-c1nc2nc(N)nc(N)c2nc1-c1ccccc1OC` was 1250 nM; that for `COc1ccc(CNCc2ccccc2)cc1-c1ccc(S(=O)(=O)NCCN2CCCC2)c(F)c1` was 1140 nM. The value for `CC(C)(C)Cn1cc(-c2ccc(C(=O)NCCc3ccc(S(C)(=O)=O)cc3)cc2)c(N)n1.CC(C)(C)Cn1ncc(-c2ccc(C(=O)NCCc3ccc(S(C)(=O)=O)cc3)cc2)c1N` was 647 nM. The value for `c1cc(C2=NC3CCCCC3N2)ccc1OCCCOc1ccc(C2=NC3CCCCC3N2)cc1` (stereo not given) was 731 nM; that for `CCOc1ccc2[nH]c(C)cc(=NN=Cc3ccccc3F)c2c1` was 738 nM; that for `COc1ccc2nccc([C@@H](O)CN3CCC(NCCOc4cc(F)cc(F)c4)CC3)c2c1` was 155 nM.

Compound `CC(=O)N(C)c1cccc(C(=O)Nc2ccc(-c3cccc(-c4nc5cccc(C)c5[nH]4)c3)cc2)c1` yielded an XC50 of 651 nM. The compound `COc1ccc2ncc(F)c(CCN3CCC(NCc4ccc5c(c4)CCO5)CC3)c2n1` registered an XC50 of 677 nM. For `CC(C)NCc1ccc(-c2ccc(CN3CCCC(c4ccccc4)C3)cc2)c(C(=O)NCC2CCCCC2)c1` (stereo not given) the value was 722 nM; for `CCCCCCN1CCCN(Cc2ccc(C(=O)Nc3ccc(F)c(F)c3)cc2)CC1`, 612 nM. For `CC(C)(C)c1ccc2[nH]c(-c3ccc(C(=O)NCCCc4ccccc4)cc3)nc2c1` the value was 801 nM; for `CC(C)NCc1ccc(-c2cccc(NC(=O)c3cccc(C#N)c3)c2)cc1`, 406 nM. Consider `Cc1cc(N[C@@H](Cc2ccccc2)C(=O)NCc2cccc(F)c2)nc(NCCc2cccnc2)n1`, for which the XC50 came out at 1340 nM. The value for `CC(C(=O)N1CCCC1)N1CCN(S(=O)(=O)c2ccc(C(C)(C)C)cc2)CC1` (stereo not given) was 636 nM. In turn, `CN1C(=O)[C@H](NC(=O)[C@@H](Cc2ccccc2)NC(=S)Nc2ccccc2)N=C(c2ccccc2)c2ccccc21` showed an XC50 of 855 nM.

Take `O=C(Nc1cccc(-c2nc3ccccc3s2)c1)c1ccccc1[N+](=O)[O-]`: the XC50 stood at 767 nM.

On to `CC(C)Cn1ncc2c3c(N)nc(N)nc3ccc21`, for which the XC50 was determined as 159 nM. Compound `COc1ccc2cc(-c3nc(-c4c(Cl)cccc4Cl)[nH]c3-c3ccnc(NCCCN4CCN(C)CC4)c3)ccc2c1` displayed an XC50 of 708 nM.

`O=C(N[C@@H](Cc1ccccc1)CN1CCC(Oc2ccc(F)cc2)CC1)c1ccc(OCCCN2CCCCC2)cc1` gave an XC50 of 885 nM. In turn, `CC(C)c1ccc(NS(=O)(=O)c2cccc(C(=O)NC3CCN(CC4CCCCC4)CC3)c2)cc1` displayed an XC50 of 1300 nM. For `CCCNCc1ccc(-c2ccc(CN(C(=O)c3nn(-c4ccccc4)nc3C)C3CCOCC3)cc2)nc1` the value was 144 nM; for `COc1ccc(CC(Cc2ccc(OC)cc2)NCC(O)c2cccc(Cl)c2)cc1` (stereo not given), 155 nM. In the case of `Cc1cccc2nc(-c3cccc(-c4ccc(NC(=O)NCc5ccccc5)cc4)c3)[nH]c12`, the XC50 worked out at 231 nM.

`CCc1cccc2sc(N3CCN(C(=O)c4ccc([N+](=O)[O-])o4)CC3)nc12`: the XC50 is 773 nM. For `Nc1ccnc(N2CCC(CCOc3cc(C(F)(F)F)nc4c(C(F)(F)F)cccc34)CC2)c1` the value was 792 nM; for `Cn1nc(C(F)(F)F)c(-c2ccc(F)cc2)c1NC(=O)Nc1ccc(F)cc1F`, 765 nM; for `O=C(Nc1cccc(F)c1)N(Cc1ccc(-c2ccc(CN3CCNCC3)cc2)cc1)C1CCN(Cc2ccccc2)CC1`, 769 nM. The value for `Cc1cc2nc(-c3ccc(C(=O)NCc4cccc(F)c4)cc3)[nH]c2cc1C` was 962 nM.

Compound `COc1cccc(-c2c(C#N)c(N)nc3c2c(C)nn3-c2ccccc2)c1O` came in with an XC50 of 282 nM. In turn, `N=C(N)c1ccc(C(=O)Nc2cccc(C(=N)N)c2)cc1` displayed an XC50 of 1040 nM.

`C=CC[C@H](C[C@H](O)[C@H](Cc1ccccc1)NC(=O)c1nn(-c2ccccc2)nc1C)C(=O)NC1CCCCC1` returned an XC50 of 915 nM.

`CCc1cn2c3c(cc(C(=O)N[C@@H](Cc4ccccc4)[C@H](O)CNC4CCCC4)cc13)N(C)S(=O)(=O)CC2`: the XC50 turned out to be 46.9 nM. For `CC[C@H](C)CNC(=O)c1ccnc(-c2cccc(CN(C)C3CCN(C)CC3)c2)c1` the value was 898 nM; for `COc1ccc(C2C(C(=O)OC3CCCC3)=C(C)NC3=C2C(=O)CCC3)cc1Br` (stereo not given), 593 nM; for `c1cncc(CCNCc2ccc(-c3ccc(-c4nc5ccccc5[nH]4)s3)cc2)c1`, 213 nM. For `COc1ccccc1C1CC(c2ccc(C)cc2)=NN1C(=O)c1ccccc1` (stereo not given) the value was 886 nM; for `COc1cc(-c2nc(C(C)(C)CN)[nH]c2-c2ccncc2)ccc1Br`, 769 nM. Take `CS(=O)(=O)N1CC2(CCN(CCC(NC(=O)Nc3ccccc3)c3ccc(Cl)c(Cl)c3)CC2)c2ccccc21` (stereo not given): the XC50 is 823 nM.
